Assay results as given in PMC5503534, “Stable aneuploid tumors cells are more sensitive to TTK inhibition than chromosomally unstable cell lines” (Oncotarget, 2017).
Read-outs that look alike come from different tables or passages of the source.

Tests used:
[1] = system: post-tetraploid HPT4 cells; experiment: Cell proliferation assay, post-tetraploid HPT4; assay type: cell-based, human; conditions: HPT4, five days; for Efficacy (%): average of three experiments; for IC50: geometric average of three experiments
Procedure: (§1) Cancer cell lines and hTERT-RPE1 retinal pigment epithelial cells were purchased from the American Type Culture Collection (ATCC) (Manassas, VA, U.S.A.) from 2011 to 2014 [41] and cultured in ATCC-recommended media. All experiments were carried out within nine passages of the original vials from ATCC who authenticated the cancer cell lines by short tandem repeat analysis. We verified the mutant status of seven frequently mutated cancer genes (i.e., BRAF, CDKN2A, CTNNB1, EGFR, KRAS, PIK3CA and TP53) by full exome or targeted sequencing. Sequencing results were compared to COSMIC version 75 of the Genomics of Drug Sensitivity in Cancer data base and provided additional authentication of the identity of the cell lines. The isolation and characterization of post-tetraploid clones from HCT 116 has been described previously. The mutation status of the CDKN2A, CTNNB1, KRAS and PIK3CA genes were confirmed by sequence analysis in both the HCT 116 parental cell line and post-tetraploid clones. All experiments were carried out within nine passages of the original cell stocks that were transferred from the Max Planck Institute of Biochemistry (Martinsried, Germany) to Netherlands Translational Research Center.
(§2) Cell proliferation assays were carried out as described using ATPlite 1step™ (Perkin Elmer, Groningen, The Netherlands). Exposure time was 72 or 120 hours as indicated in the Legends to the Figures. Percentage growth was calculated, relative to the growth of unexposed cells, and relative IC50s were fitted using a four-parameter logistics curve (XLfit 5.3, IDBS). For Figure 4A and 7 dose response curves were redrawn in Prism. To compare the inhibitory potency of compounds in proliferation assays with HCT 116 parental and tetraploid clones, pIC50 (−^10logIC50) values were compared in three independent experiments. A two-tailed Student's t-test was performed to determine whether differences in sensitivity (ΔpIC50) were statistically significant. Caspase 3/7 activity of cancer cells was measured using Caspase-Glo 3/7 Assay kit (cat no. G8093, Promega, Madison USA). Viability of T-ALL cell samples was determined using ATPlite and exposure of 72 hours as described previously.

[2] = system: post-tetraploid HPT2 cells; experiment: Cell proliferation assay, post-tetraploid HPT2; assay type: cell-based, human; conditions: HPT2, five days; for Efficacy (%): average of three experiments; for IC50: geometric average of three experiments
Procedure: as §1, §2

[3] = system: HCT 116 vs HPT1, -2 and -4; experiment: Drug sensitivity analysis, HCT116 diploid versus tetraploids; assay type: cell-based, human; conditions: for Δeff. (%) / Phenotype (potency): HCT 116 vs HPT1, -2 and -4; for Phenotype (efficacy): HCT 116 vs HPT1, -2 and -4, based on % effect; for Phenotype (potency): 'resistant' indicates that tetraploids are resistant; for ΔpIC50: average log shift in sensitivity between parental and tetraploids
Procedure: as §2

[4] = system: HCT 116 colon carcinoma cell line; experiment: Cell proliferation assay (ATPlite), HCT 116; assay type: cell-based, human; conditions: for Eff. (%): HCT 116, five days, maximum inhibitory effect, average of three experiments; for IC50: HCT 116 near-diploid, five days, geometric average of three experiments (Suppl. Table 2A)
Procedure: as §2

[5] = system: post-tetraploid HPT1 cells; experiment: Cell proliferation assay, post-tetraploid HPT1; assay type: cell-based, human; conditions: HPT1, five days; for Efficacy (%): average of three experiments; for IC50: geometric average of three experiments
Procedure: as §1, §2

[6] = system: A-172 glioblastoma cell line; conditions: three day cell proliferation assay; cited from earlier work
[7] = system: HCT 116 colon carcinoma cell line; conditions: three day cell proliferation assay; cited from earlier work
[8] = system: MG-63 osteosarcoma cell line; conditions: three day cell proliferation assay; cited from earlier work
[9] = system: DoTc2 4510 cervix carcinoma cell line; conditions: three day cell proliferation assay; cited from earlier work
[10] = system: 66 cancer cell lines (44 cell lines); set-up: method as in earlier work; conditions: 3 days; geometric average in 44 cell lines; cited from earlier work
[11] = system: LoVo colorectal adenocarcinoma cell line; conditions: three day cell proliferation assay; cited from earlier work
[12] = system: OVCAR-3 ovary adenocarcinoma cell line; conditions: three day cell proliferation assay; cited from earlier work
full-length Aurora B = biological target: T1, full-length Aurora B (Homo sapiens, UniProt Q96GD4); experiment: Surface plasmon resonance binding kinetics, Aurora B; conditions: SPR, geometric average
T1 construct: to the kinase domain of TTK and full-length Aurora B; purchased Carna Biosciences, Inc., Kobe, Japan; host or cells: Sf9 insect cells
Excerpt: Originally, the compound was identified in a phenotypic screen for molecules that can induce stem-cell like phenotypes. Later this property was attributed to its ability to inhibit the mitotic kinase Aurora B [39].

[13] = system: pediatric T-ALL patient cell samples; experiment: Viability assays with T-ALL patient samples; assay type: cell-based, human; conditions: Homo sapiens, 72 h
Procedure: Written informed consent was obtained from the parents or legal guardians of each T-ALL patient to use excess diagnostic material for research purposes. The study was performed in accordance with the Institutional Review Board of the Erasmus Medical Center Rotterdam (The Netherlands) and in accordance with the Declaration of Helsinki. Leukemic cells were harvested from blood or bone marrow samples and were enriched to ≥ 90% purity.
as §2

[14] = mouse, in vivo; cited from earlier work

T1 sequence (Q96GD4 whole entry, the tested form may be a part): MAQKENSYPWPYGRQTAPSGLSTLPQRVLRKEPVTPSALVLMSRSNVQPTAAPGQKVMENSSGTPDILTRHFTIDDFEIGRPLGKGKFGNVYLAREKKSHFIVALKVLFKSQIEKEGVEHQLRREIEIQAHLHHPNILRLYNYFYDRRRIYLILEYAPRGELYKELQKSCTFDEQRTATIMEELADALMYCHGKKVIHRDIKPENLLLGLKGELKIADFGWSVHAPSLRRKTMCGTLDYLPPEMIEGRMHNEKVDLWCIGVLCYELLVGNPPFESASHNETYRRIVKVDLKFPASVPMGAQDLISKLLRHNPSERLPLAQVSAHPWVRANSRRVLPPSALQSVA

IC50 ([4]; Homo sapiens, 120 h) [µM] | Compound | Efficacy (%) [1] [%] | IC50 ([1]; Homo sapiens, 120 h) [µM] | Efficacy (%) [2] [%] | IC50 ([2]; Homo sapiens, 120 h) [µM] | Δeff. (%) [3] [%] | Phenotype (efficacy) [3] | Phenotype (potency) [3] | ΔpIC50 [3] | Eff. (%) [4] [%] | Efficacy (%) [5] [%] | IC50 ([5]; Homo sapiens, 120 h) [µM] | IC50 [6] [µM] | IC50 [7] [µM] | IC50 [8] [µM] | IC50 [9] [µM] | IC50 [11] [µM] | IC50 [12] [µM] | other results
0.014 | CCn1cc(-c2ccnc3[nH]c(-c4cccc(CN(C)C)c4)cc23)c(-c2ccc(NC(=O)N(C)C)cc2)n1 [GSK-1070916] | 100 | 1.68 | 100 | 1.7 | 16 | sensitive | resistant | 1.41 | 61 | 32 | 0.016 | – | – | – | – | – | – | –
0.715 | O=C(O)c1ccc(Nc2ncc3c(n2)-c2ccc(Cl)cc2C(c2c(F)cccc2F)=NC3)cc1 [MLN-8054] | 56 | 1.2 | 52 | 1.55 | −28 | resistant | resistant | 0.28 | 85 | 61 | 1.33 | – | – | – | – | – | – | –
– | Cc1cc(N2CCOCC2)ccc1Nc1nc(NC2CCCCC2)c2[nH]cnc2n1 [MPI-047605] | 51 | – | 46 | – | −22 | resistant | sensitive | −0.07 | 72 | 52 | – | 0.198 | 0.234 | 0.899 | 8.39 | 0.22 | 7.33 | IC50 [1]: 0.191 µM; IC50 [2]: 0.199 µM; IC50 [4]: 0.233 µM; IC50 [10]: 0.448 µM; IC50 [5]: 0.208 µM; ka (full-length Aurora B): 9550 M⁻¹ s⁻¹; kd (full-length Aurora B): 0.291 s⁻¹
– | N[C@@H](CSC(c1ccccc1)(c1ccccc1)c1ccccc1)C(=O)O [STLC, S-trityl-L-cysteine] | 95 | 1.4 | 93 | 1.34 | −6 | resistant | resistant | 0.34 | 99 | 90 | 2.04 | – | – | – | – | – | – | –
– | CC(C)C[C@H](NC(=O)[C@H](Cc1ccccc1)NC(=O)c1cnccn1)B(O)O [bortezomib] | – | – | – | – | – | – | – | – | – | – | – | – | – | – | – | – | – | IC50 ([13]; all ten T-ALL patient samples, three days, read-out: IC50): < 0.01 µM; IC50 ([13]; patient sample 491, three-day assay, read-out: IC50): 0.003 µM; IC50 ([13]; patient sample 1033, three-day assay, read-out: IC50): 0.003 µM; IC50 ([13]; patient sample 1816, three-day assay, read-out: IC50): 0.002 µM; IC50 ([13]; patient sample 2323, three-day assay, read-out: IC50): 0.003 µM; IC50 ([13]; patient sample 3594, three-day assay, read-out: IC50): 0.004 µM; IC50 ([13]; patient sample 3852, three-day assay, read-out: IC50): 0.004 µM; IC50 ([13]; patient sample 4023, three-day assay, read-out: IC50): 0.003 µM; IC50 ([13]; patient sample 4126, three-day assay, read-out: IC50): 0.003 µM; IC50 ([13]; patient sample 4992, three-day assay, read-out: IC50): 0.003 µM; IC50 ([13]; patient sample 10110, three-day assay, read-out: IC50): 0.003 µM
– | N.N.[Cl][Pt][Cl] [cisplatin] | – | – | – | – | – | – | – | – | – | – | – | 15.9 | 6.21 | 4.51 | 7.4 | 6.73 | 11.3 | –
– | CN(C)/N=N/c1[nH]cnc1C(N)=O [dacarbazine] | – | – | – | – | – | – | – | – | – | – | – | 31.6 | 18.6 | 16 | 3.09 | 5.29 | 13.9 | –
– | COc1cccc2c1C(=O)c1c(O)c3c(c(O)c1C2=O)C[C@@](O)(C(C)=O)C[C@@H]3O[C@H]1C[C@H](N)[C@H](O)[C@H](C)O1 [daunorubicin] | – | – | – | – | – | – | – | – | – | – | – | – | – | – | – | – | – | IC50 ([13]; all ten T-ALL patient samples, three days): < 0.1 µM; IC50 ([13]; patient sample 491, three-day assay): 0.08 µM; IC50 ([13]; patient sample 1033, three-day assay): 0.043 µM; IC50 ([13]; patient sample 1816, three-day assay): 0.038 µM; IC50 ([13]; patient sample 2323, three-day assay): 0.08 µM; IC50 ([13]; patient sample 3594, three-day assay): 0.043 µM; IC50 ([13]; patient sample 3852, three-day assay): 0.061 µM; IC50 ([13]; patient sample 4023, three-day assay): 0.057 µM; IC50 ([13]; patient sample 4126, three-day assay): 0.071 µM; IC50 ([13]; patient sample 4992, three-day assay): 0.041 µM; IC50 ([13]; patient sample 10110, three-day assay): 0.042 µM
– | CC(=O)O[C@@]12CO[C@@H]1C[C@H](O)[C@@]1(C)C(=O)[C@H](O)C3=C(C)[C@@H](OC(=O)[C@H](O)[C@@H](NC(=O)OC(C)(C)C)c4ccccc4)C[C@@](O)([C@@H](OC(=O)c4ccccc4)[C@H]21)C3(C)C [docetaxel] | – | – | – | – | – | – | – | – | – | – | – | 0.003 | 0.002 | 0.001 | 0.003 | 0.008 | 0.004 | effect on bone marrow or blood cell count (hematological toxicity) [14]: hematological toxicity was seen
0.031 | COc1cccc2c1C(=O)c1c(O)c3c(c(O)c1C2=O)C[C@@](O)(C(=O)CO)C[C@@H]3O[C@H]1C[C@H](N)[C@H](O)[C@H](C)O1 [doxorubicin] | 100 | 0.083 | 100 | 0.13 | 3 | sensitive | resistant | 0.46 | 97 | 99 | 0.069 | – | – | – | – | – | – | –
– | CC(=O)O[C@H]1C(=O)[C@@]2(C)[C@H]([C@H](OC(=O)c3ccccc3)[C@]3(O)C[C@H](OC(=O)[C@H](O)[C@@H](NC(=O)c4ccccc4)c4ccccc4)C(C)=C1C3(C)C)[C@]1(OC(C)=O)CO[C@@H]1C[C@@H]2O [paclitaxel] | – | – | – | – | – | – | – | – | – | – | – | 0.017 | 0.005 | 0.006 | 0.01 | 0.023 | 0.026 | –
0.025 | CC[C@@H]1C(=O)N(C)c2cnc(Nc3ccc(C(=O)N[C@H]4CC[C@H](N5CCN(CC6CC6)CC5)CC4)cc3OC)nc2N1C(C)C [volasertib] | 84 | 0.049 | 65 | 0.045 | −21 | resistant | resistant | 0.19 | 98 | 82 | 0.026 | – | – | – | – | – | – | –
